Key:
[1] = Absorption spectrum of polyphenols (mechanical filter capacity); format: physicochemical; conditions: 1 mM in pure ethanol, 200-800 nm
Protocol: A solution of 1 mM of each polyphenol was prepared (PTER, Resveratrol and QUER) in absolute ethanol (HPLS quality; Quima) and the absorption spectrum was studied between 200 and 800 nm using a Multiskan Spectrum (ThermoScientific).
With the purpose of studying the capacity of the polyphenols used in this study, we decided to evaluate the absorption of light throughout the ultraviolet light spectrum as shown in FIG. 13.

[2] = tested on: BALB/c mice; test: Contact hypersensitivity induced by oxazolone (ear edema); format: in vivo; conditions: FIG. 22; 1 μmol polyphenols, 20 mg diprosone; applied after oxazolone
Protocol: The edema was calculated as the difference between the thickness that was produced in the ears, before the outcomes of the reaction, and their thickness 24 hours later, and it was measured with a vernier caliper.
The change was expressed as the relative increase in relation to day 0.
The application of oxazolone after sensitization to the same substance produces a reaction of hypersensitivity by contact, which appears as an eczematous reaction, with infiltration of lymphocytes and macrophages, with edema of the epidermis.
The BALB/c mice are sensitized on day 0 through the application, on the shaved abdomen, of 100 μL of oxazolone at 1.5% in acetone (w/v). Prior to the induction for hypersensitization, the thickness of the ear was measured with the help of a vernier caliper (Mitutoyo micrometer). The reaction was caused on day 7 by applying 20 μL of 2.5% oxazolone in ethanol (10 μL to each side of the right ear).
As a control measure the left ear was used, to which 20 μL of ethanol was applied. And a standard treatment, Diprosone® cream was used: (Schering Plough B. V., Utrecht, The Netherlands), that contains 0.5 mg de betamethasone/g. […]

[3] = tested on: SKH-1 mice; test: Experimental psoriasis induced by TPA; format: in vivo
Protocol: For the induction of psoriasis, the agent “12-O-tetradecanoylphorbol-13 acetate” (TPA) was used.
Since our objective was to assess the progress of the lesions caused by psoriasis in combination with the use of polyphenols, a model of continuous exposure and a weaker concentration of TPA were used, on a daily dose of 2 nmoles of TPA over a period of a week, which allowed us to observe the progress of the psoriasis.
The induction was performed with 2 nmol TPA/mouse on an area of 1 cm^2, applying 10 μL of the 200 μM solution in acetone. This application protocol was carried out taking into account that when applying 20 μL as stated in the model, the volume increased considerably and it lost its concentration, therefore it was decided to make it more concentrated.
As a standard treatment, Dexamethasone was used, (from Sigma Solution 25 mM in acetone). The administration of the standard treatment and the products to be tested were given 30 minutes prior to the application of TPA, both beginning on the same day.
The groups, of 6 mice, for this assessment were: • Not treated. • Reference compound: 0.5 μmoles of Dexamethasone (200 μL of one solution 25 mM in acetone). • Medium: 200 μl of vacuumed Liposomes. • Resveratrol: 200 μL of Resveratrol Liposomes (10 μmol in total). • PTER: 200 μL of PTER Liposomes (10 μmol in total). • QUER: 200 μL of QUER Liposomes (10 μmol in total). • PTER+QUER:: 200 μL of PTER Liposomes+QUER (10 μmol in total).
At 24 hours (day 7) after the last administration of the different treatments and TPA, 3 mice from each group were sacrificed and their skin fixed with 4% PFA. The remaining mice were kept under the treatment with no exposure to TPA, to verify if the skin recovered faster on the treatment than on its own. At 24 hours (day 9) after the last administration of the different treatments the rest of the mice were sacrificed and their skin fixed with 4% PFA.
The flaky aspect of the skin was quantified in a scale of 0-3, being 0, nothing; 1, mild; 2, moderate; 3, severe.

In the case of COc1cc(/C=C/c2ccc(O)cc2)cc(OC)c1 [PTER, 3,5-dimethoxy-4′-hydroxy-trans-resveratrol], the “absorption of light, range of maximum absorption” value [1] is reported as “peaks or maximum absorption in the range of Ultraviolet B”, the “edema of the ear / inflammatory changes induced by oxazolone” value [2] is reported as “could prevent inflammatory changes as a result of inflammation induced by oxazolone” and the “index of excoriation or descaling (scale 0-3)” value ([3]; 24 hours after 7 administrations of TPA) is reported as “fewer indexes of excoriation or descaling”. The “increase of skinfold throughout the procedure” value ([3]; FIG. 23, 6 consecutive days, treatment 30 min prior to 2 nmol TPA) was “an important decrease in the increase of skinfolds”, the “increase in the skinfold 24 hours after the first administration of TPA” value ([3]; FIG. 24, treatment 30 min prior to 2 nmol TPA) was “significantly diminished the appearance of edema” and the “skinfold after 3 administrations of TPA” value ([3]; FIG. 25) was “produce a diminishing effect on the inflammation produced by TPA”. The “histological analysis of the lesions” value ([3]; FIG. 28, hematoxylin-eosin, TPA daily over 7 days) was “no signs of papillomatosis, but there was acanthosis due to a massive proliferation”.
